Experimental data taken from patent publication US12098148B2, “Therapeutic compounds” (C4X Discovery Limited, priority 2018, dated 2024).
Like-named read-outs stand apart in the source and are kept apart here.

Assays:
[1] = test system: NQO1 mRNA in BEAS-2B cells; test: Beas2B NQO1 mRNA cell based assay; parameters: species or system human; conditions: 24 h compound treatment, increase in NQO1 mRNA vs vehicle (0.1% DMSO), read-out: EC50
How it was run: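 Relative NQO1 transcript level derived by ΔΔCT with human β-actin as internal control, using direct-lysate one-step RT-qPCR. Cells were BEAS-2B, plated overnight then treated with compound for 24 h.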

[2] = target: human KEAP1 (N-term, residues 321-609) (Homo sapiens, UniProt Q14145); test: biochemical;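 note: fluorescence polarization competition assay of Kelch domain binding to NRF2, 12-point 1:3 dilution series from 10 µM, read after 1 h at room temperature, floor 10 nM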
Sequence of human KEAP1 (N-term, residues 321-609) (Q14145 321-609): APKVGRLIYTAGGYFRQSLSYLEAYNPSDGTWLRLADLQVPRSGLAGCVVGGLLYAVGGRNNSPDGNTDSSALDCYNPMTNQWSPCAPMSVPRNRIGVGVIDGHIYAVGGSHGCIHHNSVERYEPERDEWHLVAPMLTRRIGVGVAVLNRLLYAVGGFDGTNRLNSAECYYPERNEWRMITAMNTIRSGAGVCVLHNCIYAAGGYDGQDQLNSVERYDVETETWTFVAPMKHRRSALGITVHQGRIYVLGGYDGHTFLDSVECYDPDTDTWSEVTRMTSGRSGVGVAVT
Description: Biological Assays KEAP1 Kelch Fluorescence Polarization (FP) Assay Method
Inhibition of the Kelch domain-NRF2 interaction was determined using a fluorescence polarization-based competition assay in a black 384-well microplate. Compounds were tested at a starting concentration of 10 μM serially diluted 1:3 to generate a 12-point dose response curve on the Biomek FX robot.
After 1 h at room temperature, fluorescence polarization (excitation 470 nm/emission 530 nm) was measured using an Envision plate reader. IC50 values were determined by fitting the data to a four parameter logistic fit using XLfit or XE Runner within ActivityBase.

IC50 [2]	SMILES	EC50 ([1]; Homo sapiens, BEAS-2B, 24 h)	EC50 [1]
3.7 nM	O=C(O)[C@H]1CCCC[C@H]1C(=O)N1CCc2c(Cl)ccc(O[C@H]3CCN(C(=O)c4cncs4)C3)c2[C@H]1CN1C(=O)c2ccccc2C1=O [Example 14, (1S,2R)-2-((S)-5-chloro-1-((1,3-dioxoisoindolin-2-yl)methyl)-8-(((S)-1-(thiazole-5-carbonyl)pyrrolidin-3-yl)oxy)-1,2,3,4-tetrahydroisoquinoline-2-carbonyl)cyclohexane-1-carboxylic acid]	2.9 nM	–
6.3 nM	CC(C)n1nnc(COc2ccc(Cl)c3c2[C@@H](CN2CCCC2=O)N(C(=O)[C@@H]2CCCC[C@]2(C)C(=O)O)CC3)c1C(F)F [Example 121, (1S,2R)-2-((S)-5-chloro-8-((5-(difluoromethyl)-1-isopropyl-1H-1,2,3-triazol-4-yl)methoxy)-1-((2-oxopyrrolidin-1-yl)methyl)-1,2,3,4-tetrahydroisoquinoline-2-carbonyl)-1-methylcyclohexane-1-carboxylic acid]	11 nM	–
22 nM	CC1(C)CC(COc2ccc(Cl)c3c2[C@@H](CN2CC4(CC4)CC2=O)N(C(=O)[C@@H]2CCCC[C@]2(C)C(=O)O)CC3)=NO1 [Example 136, (1S,2R)-2-((S)-5-chloro-8-((5,5-dimethyl-4,5-dihydroisoxazol-3-yl)methoxy)-1-((6-oxo-5-azaspiro[2.4]heptan-5-yl)methyl)-1,2,3,4-tetrahydroisoquinoline-2-carbonyl)-1-methylcyclohexane-1-carboxylic acid]	1700 nM	–
4.7 nM	Cc1cnc(N2CC[C@H](Oc3ccc(Br)c4c3[C@@H](CN3Cc5ccccc5C3=O)N(C(=O)[C@@H]3CCCC[C@@H]3C(=O)O)CC4)C2)s1 [Example 21, (1S,2R)-2-((S)-5-bromo-8-(((S)-1-(5-methylthiazol-2-yl)pyrrolidin-3-yl)oxy)-1-((1-oxoisoindolin-2-yl)methyl)-1,2,3,4-tetrahydroisoquinoline-2-carbonyl)cyclohexane-1-carboxylic acid]	7.9 nM	–
3.6 nM	Cn1nnc(COc2ccc(Cl)c3c2[C@@H](CN2Cc4ccccc4C2=O)N(C(=O)[C@@H]2CCCC[C@@H]2C(=O)O)CC3)c1C(F)(F)F [Example 54, (1S,2R)-2-((S)-5-Chloro-8-((1-methyl-5-(trifluoromethyl)-1H-1,2,3-triazol-4-yl)methoxy)-1-((1-oxoisoindolin-2-yl)methyl)-1,2,3,4-tetrahydroisoquinoline-2-carbonyl)cyclohexane-1-carboxylic acid]	7.2 nM	–
6.6 nM	Cn1ncc(COc2ccc(Cl)c3c2[C@@H](CN2CC4(CC4)CC2=O)N(C(=O)[C@@H]2CCCC[C@]2(C)C(=O)O)CC3)n1 [Example 206, (1S,2R)-2-((S)-5-chloro-8-((2-methyl-2H-1,2,3-triazol-4-yl)methoxy)-1-((6-oxo-5-azaspiro[2.4]heptan-5-yl)methyl)-1,2,3,4-tetrahydroisoquinoline-2-carbonyl)-1-methylcyclohexane-1-carboxylic acid]	34 nM	–
5.6 nM	Cc1cnoc1COc1ccc(Cl)c2c1[C@@H](CN1CCCC1=O)N(C(=O)[C@@H]1CCCC[C@]1(C)C(=O)O)CC2 [Example 126, (1S,2R)-2-((S)-5-chloro-8-((4-methylisoxazol-5-yl)methoxy)-1-((2-oxopyrrolidin-1-yl)methyl)-1,2,3,4-tetrahydroisoquinoline-2-carbonyl)-1-methylcyclohexane-1-carboxylic acid]	32 nM	–
6.9 nM	C[C@]1(C(=O)O)CCCC[C@H]1C(=O)N1CCc2c(Cl)ccc(OCc3ncsc3C(F)F)c2[C@H]1CN1CC2(CC2)CC1=O [Example 204, (1S,2R)-2-((S)-5-chloro-8-((5-(difluoromethyl)thiazol-4-yl)methoxy)-1-((6-oxo-5-azaspiro[2.4]heptan-5-yl)methyl)-1,2,3,4-tetrahydroisoquinoline-2-carbonyl)-1-methylcyclohexane-1-carboxylic acid]	13 nM	–
6.4 nM	C[C@]1(C(=O)O)CCCC[C@H]1C(=O)N1CCc2c(Cl)ccc(OCc3cncnc3C(F)(F)F)c2[C@H]1CN1CC2(CC2)CC1=O [Example 171, (1S,2R)-2-((S)-5-chloro-1-((6-oxo-5-azaspiro[2.4]heptan-5-yl)methyl)-8-((4-(trifluoromethyl)pyrimidin-5-yl)methoxy)-1,2,3,4-tetrahydroisoquinoline-2-carbonyl)-1-methylcyclohexane-1-carboxylic acid]	19 nM	–
14 nM	Cc1cc(COc2ccc(Br)c3c2[C@@H](CN2Cc4ccccc4C2=O)N(C(=O)[C@@H]2CCCC[C@@H]2C(=O)O)CC3)no1 [Example 26, (1S,2R)-2-((S)-5-Bromo-8-((5-methylisoxazol-3-yl)methoxy)-1-((1-oxoisoindolin-2-yl)methyl)-1,2,3,4-tetrahydroisoquinoline-2-carbonyl)cyclohexane-1-carboxylic acid]	58 nM	–
5.6 nM	C[C@]1(C(=O)O)CCCC[C@H]1C(=O)N1CCc2c(Cl)ccc(OCc3nnc4n3CCCC4)c2[C@H]1CN1CC2(CC2)CC1=O [Example 186, (1S,2R)-2-((S)-5-chloro-1-((6-oxo-5-azaspiro[2.4]heptan-5-yl)methyl)-8-((5,6,7,8-tetrahydro-[1,2,4]triazolo[4,3-a]pyridin-3-yl)methoxy)-1,2,3,4-tetrahydroisoquinoline-2-carbonyl)-1-methylcyclohexane-1-carboxylic acid]	4.7 nM	–
5.1 nM	O=C(O)[C@H]1CCCC[C@H]1C(=O)N1CCc2cccc(O[C@H]3CCN(C(=O)c4cncs4)C3)c2[C@H]1CN1Cc2ccccc2C1=O [Example 15, (1S,2R)-2-((S)-1-((1-Oxoisoindolin-2-yl)methyl)-8-(((S)-1-(thiazole-5-carbonyl)pyrrolidin-3-yl)oxy)-1,2,3,4-tetrahroisoquinoline-2-carbonyl)cyclohexane-1-carboxylic acid]	850 nM	–
5.9 nM	Cc1cc(COc2ccc(Cl)c3c2[C@@H](CN2CCCC2=O)N(C(=O)[C@@H]2CCCC[C@@H]2C(=O)O)CC3)ns1 [Example 70, (1S,2R)-2-((S)-5-Chloro-8-((5-methylisothiazol-3-yl)methoxy)-1-((2-oxopyrrolidin-1-yl)methyl)-1,2,3,4-tetrahydroisoquinoline-2-carbonyl) cyclohexane-1-carboxylic acid]	55 nM	–
6.1 nM	Cn1nnc(COc2ccc(Cl)c3c2[C@@H](CN2CCCC2=O)N(C(=O)[C@@H]2CCCC[C@]2(C)C(=O)O)CC3)c1C(F)F [Example 91, (1S,2R)-2-((S)-5-Chloro-8-((5-(difluoromethyl)-1-methyl-1H-1,2,3-triazol-4-yl)methoxy)-1-((2-oxopyrrolidin-1-yl)methyl)-1,2,3,4-tetrahydroisoquinoline-2-carbonyl)-1-methylcyclohexane-1-carboxylic acid]	0.21 nM	–
6.4 nM	Cn1nnc2c1CC(Oc1ccc(Cl)c3c1[C@@H](CN1CC4(CC4)CC1=O)N(C(=O)[C@@H]1CCCC[C@]1(C)C(=O)O)CC3)C2 (single isomer, unassigned; isomer 2) [Example 216]	–	110 nM
18 nM	Cn1nnc(COc2ccc(Cl)c3c2[C@@H](CN2CCCC2=O)N(C(=O)C2C4CCC(C4)C2C(=O)O)CC3)c1C(F)F (stereo partly drawn) [Example 96, 3-((S)-5-Chloro-8-((5-(difluoromethyl)-1-methyl-1H-1,2,3-triazol-4-yl)methoxy)-1-((2-oxopyrrolidin-1-yl)methyl)-1,2,3,4-tetrahydroisoquinoline-2-carbonyl)bicyclo[2.2.1]heptane-2-carboxylic acid]	210 nM	–
8.5 nM	Cc1nc(COc2ccc(Cl)c3c2[C@@H](CN2CCCC2=O)N(C(=O)[C@@H]2CCCC[C@]2(C)C(=O)O)CC3)no1 [Example 168, (1S,2R)-2-((S)-5-chloro-8-((5-methyl-1,2,4-oxadiazol-3-yl)methoxy)-1-((2-oxopyrrolidin-1-yl)methyl)-1,2,3,4-tetrahydroisoquinoline-2-carbonyl)-1-methylcyclohexane-1-carboxylic acid]	85 nM	–
10 nM	Cn1nc(COc2ccc(Cl)c3c2[C@@H](CN2CCCC2=O)N(C(=O)[C@@H]2CCCC[C@@H]2C(=O)O)CC3)c2ccccc21 [Example 98, (1S,2R)-2-((S)-5-Chloro-8-((1-methyl-1H-indazol-3-yl)methoxy)-1-((2-oxopyrrolidin-1-yl)methyl)-1,2,3,4-tetrahydroisoquinoline-2-carbonyl) cyclohexane-1-carboxylic acid]	330 nM	–
7.8 nM	CC(C)n1cc(COc2ccc(Br)c3c2[C@@H](CN2C[C@@H](C)CC2=O)N(C(=O)[C@@H]2CCCC[C@@H]2C(=O)O)CC3)nn1 [Example 77, (1S,2R)-2-((S)-5-Bromo-8-((1-isopropyl-1H-1,2,3-triazol-4-yl)methoxy)-1-(((S)-4-methyl-2-oxopyrrolidin-1-yl)methyl)-1,2,3,4-tetrahydroisoquinoline-2-carbonyl) cyclohexane-1-carboxylic acid]	6.7 nM	–
7.8 nM	O=C(O)[C@H]1CCCC[C@H]1C(=O)N1CCc2c(Cl)ccc(OCc3cccnc3)c2[C@H]1CN1CCCC1=O [Example 78, (1S,2R)-2-((S)-5-Chloro-1-((2-oxopyrrolidin-1-yl)methyl)-8-(pyridin-3-ylmethoxy)-1,2,3,4-tetrahydroisoquinoline-2-carbonyl) cyclohexane-1-carboxylic acid]	57 nM	–
